Literature values in patent US11020416B2, “Cancer chemotherapy employing halogenated analogs of thymidine” (priority 2015, dated 2021).
Like-named read-outs stand apart in the source and are kept apart here.

What was measured:
[1] = test system: Colorectal Liver Metastases; conditions: trial f, 1989, 11 patients, dose 1.0, ia, no radiation, multiple cycles up to 5 months, cited from earlier work
[2] = 14-day continuous infusion alternating with 14 days without infusion; cited from earlier work
PARP1 = PARP1 (Homo sapiens, UniProt P09874); conditions: solution; Pivazyan, 1992; cited from earlier work
[3] = test system: Oropharynx and Upper Extremity Tumors; conditions: trial b, 1962, 4 patients, dose 3.9, iv/ia, no radiation, single cycle 1 week; cited from earlier work
[4] = cited from earlier work; for [IdU] plasma, average steady-state: continuous iv; for [IU] plasma (iodouracil), average steady-state: continuous iv IdU
[5] = test system: Melanoma, Carcinoma, Sarcoma; conditions: trial a, 1961, 16 patients, dose 3.1, iv, rad +/−, multiple cycles up to 5 months; cited from earlier work
Unresectable Sarcoma = conditions: trial d, 1987, 14 patients, dose 1.3, iv, with radiation, multiple cycles up to 5 months, cited from earlier work
Carcinoma, Melanoma = conditions: trial c, 1962, 39 patients, dose 3.5, iv, no radiation, single cycle 1 week; cited from earlier work
[6] = intraperitoneal, Morgan 1998, cited from earlier work
[7] = schedule G, 1.000 Grams/M^2/day, Kinsella 1988
[8] = schedule I, 0.781 Grams/M^2/day, Schultz 2004
[9] = schedule J, 0.625 Grams/M^2/day, Schultz 2004
[10] = schedule M, 0.500 Grams/M^2/day, Schultz 2004
[11] = schedule N, 0.400 Grams/M^2/day, Schultz 2004
[12] = schedule O, 0.300 Grams/M^2/day, Schultz 2004
[13] = schedule Q, 0.200 Grams/M^2/day, Schultz 2004
[14] = schedule R, 0.100 Grams/M^2/day, Schultz 2004
[15] = schedule A, 4.538 Grams/M^2/4 hr (2 liters), 64 millimolar

Sequence of PARP1 (P09874 whole entry, species assumed): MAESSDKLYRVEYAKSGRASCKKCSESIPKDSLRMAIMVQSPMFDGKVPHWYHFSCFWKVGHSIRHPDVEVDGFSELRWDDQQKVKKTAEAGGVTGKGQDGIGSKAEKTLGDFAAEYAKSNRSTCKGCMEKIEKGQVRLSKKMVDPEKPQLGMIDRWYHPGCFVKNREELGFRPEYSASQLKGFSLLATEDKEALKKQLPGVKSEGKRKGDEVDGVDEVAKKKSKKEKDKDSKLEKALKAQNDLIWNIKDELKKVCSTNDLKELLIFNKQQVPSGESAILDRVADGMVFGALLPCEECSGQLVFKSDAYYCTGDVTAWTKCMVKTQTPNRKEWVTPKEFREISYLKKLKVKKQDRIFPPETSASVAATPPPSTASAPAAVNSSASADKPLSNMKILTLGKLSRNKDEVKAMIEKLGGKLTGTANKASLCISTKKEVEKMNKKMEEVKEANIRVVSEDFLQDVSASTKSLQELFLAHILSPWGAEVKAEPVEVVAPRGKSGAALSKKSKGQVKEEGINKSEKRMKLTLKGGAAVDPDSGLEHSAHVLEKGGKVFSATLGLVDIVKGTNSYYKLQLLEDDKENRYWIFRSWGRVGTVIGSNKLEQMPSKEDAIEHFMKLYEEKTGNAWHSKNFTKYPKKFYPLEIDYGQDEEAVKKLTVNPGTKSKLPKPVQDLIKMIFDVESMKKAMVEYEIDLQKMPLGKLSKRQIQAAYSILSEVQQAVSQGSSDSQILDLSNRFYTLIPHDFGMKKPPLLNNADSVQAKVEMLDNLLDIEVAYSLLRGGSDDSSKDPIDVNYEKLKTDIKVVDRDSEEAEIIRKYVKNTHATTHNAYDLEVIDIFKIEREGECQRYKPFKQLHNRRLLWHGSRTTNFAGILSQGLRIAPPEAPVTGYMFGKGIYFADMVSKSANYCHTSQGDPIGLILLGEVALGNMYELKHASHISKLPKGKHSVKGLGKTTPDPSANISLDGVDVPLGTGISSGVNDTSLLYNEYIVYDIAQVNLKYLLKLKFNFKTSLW

In the case of `O=c1[nH]c(=O)n([C@H]2C[C@H](O)[C@@H](CO)O2)cc1I` [Iododeoxyuridine, 5-iododeoxyuridine], the objective improvement [1] is listed as “almost half of the patients”, the objective improvement ([1]; listed as IUDR) is listed as 45% and the “time after HAT withdrawal to myelosuppression nadir and return of blood cell counts to normal” value [2] is listed as 7 to 10 days. The Ki (PARP1) was 18 µM, the objective improvement [3] was 100% and the subjective improvement [3] was 100%. The plasma concentration achieved ([4]; continuous circulatory infusion, historic trials d-f) was > 1000 nM, the “elimination from patient plasma” value ([4]; pharmacokinetic analysis in patients) was “rapidly eliminated” and the “[IdU] plasma, average steady-state” value ([4]; schedule C, 1.200 Grams/M^2/day, Klecker 1985) was 7.4 µM. For the same molecule, the “[IdU] plasma, average steady-state” value ([4]; schedule D, 1.200 Grams/M^2/day, Kinsella 1988) was 3.4 µM, the “[IdU] plasma, average steady-state” value ([4]; schedule E, 1.000 Grams/M^2/day, Klecker 1985) was 5.6 µM and the “[IU] plasma (iodouracil), average steady-state” value (“[IU] plasma (iodouracil)” below) [4, 7] was >20 µM. For the same molecule, the “[IdU] plasma, average steady-state” value [4, 7] was 2.4 µM, the “[IdU] plasma, average steady-state” value ([4]; schedule H, 0.850 Grams/M^2/day, Klecker 1985) was 4.5 µM and the “[IU] plasma (iodouracil)” value [4, 8] was 21.8 µM. The “[IdU] plasma, average steady-state” value [4, 8] was 1.5 µM, the “[IU] plasma (iodouracil)” value [4, 9] was 13.9 µM and the “[IdU] plasma, average steady-state” value [4, 9] was 1.3 µM. The “[IdU] plasma, average steady-state” value ([4]; schedule K, 0.500 Grams/M^2/day, Klecker 1985) was 2.9 µM, the “[IdU] plasma, average steady-state” value ([4]; schedule L, 0.500 Grams/M^2/day, Kinsella 1988) was 1.3 µM and the “[IU] plasma (iodouracil)” value [4, 10] was 6.0 µM. For the same molecule, the “[IdU] plasma, average steady-state” value [4, 10] was 0.92 µM, the “[IU] plasma (iodouracil)” value [4, 11] was 4.3 µM and the “[IdU] plasma, average steady-state” value [4, 11] was 0.90 µM. The “[IU] plasma (iodouracil)” value [4, 12] was 3.0 µM, the “[IdU] plasma, average steady-state” value [4, 12] was 0.57 µM and the “[IdU] plasma, average steady-state” value ([4]; schedule P, 0.250 Grams/M^2/day, Klecker 1985) was 1.1 µM. The “[IU] plasma (iodouracil)” value [4, 13] was 1.4 µM, the “[IdU] plasma, average steady-state” value [4, 13] was 0.79 µM and the “[IU] plasma (iodouracil)” value [4, 14] was 0.38 µM. For the same molecule, the “[IdU] plasma, average steady-state” value [4, 14] was 0.51 µM, the objective improvement [5] was 38% and the subjective improvement [5] was 38%. For the same molecule, the objective improvement (Unresectable Sarcoma) was 80%, the subjective improvement (Unresectable Sarcoma) was “more than half of patients” and the subjective improvement (Unresectable Sarcoma; listed as IUDR) was 57%. The objective improvement (Carcinoma, Melanoma) was 26%, the “Peritoneal AUC” value [6, 15] was 4099 µM·h and the “Plasma AUC” value [6, 15] was 139 µM·h. The “Plasma AUC” value ([6]; schedule F, 0.625 Grams/M^2/4 hr (2 liters), 9 millimolar) was 4.38 µM·h.
